Test results as given in US20100016225A1, “CONJUGATES COMPRISED OF POLYMER AND HIV gp-41-DERIVED PEPTIDES AND THEIR USE IN THERAPY” (Trimeris, Inc., priority 2002, published 2010).
Like-named read-outs stand apart in the source and are kept apart here.

Experiments:
HIV-1 T20S = format: cell-based
Source text: (§1) Illustrated in this example is the unexpected result of antiviral potency using the conjugates according to the present invention. […] In determining antiviral activity (e.g., one measure being the ability to inhibit transmission of HIV to a target cell) of the conjugates according to the present invention, used was an in vitro assay which has been shown, by data generated using synthetic peptides derived from either of the HR regions of HIV gp41, to be predictive of antiviral activity observed in vivo.
(§2) The infectivity assays score for reduction of infectious virus titer employing the indicator cell lines MAGI or the CCR5 expressing derivative cMAGI. Both cell lines exploit the ability of HIV-1 that to transactivate the expression of a β-galactosidase reporter gene driven by the HIV-LTR. The β-gal reporter has been modified to localize in the nucleus and can be detected with the X-gal substrate as intense nuclear staining within a few days of infection. The number of stained nuclei can thus be interpreted as equal to the number of infectious virions in the challenge inoculum if there is only one round of infection prior to staining. Infected cells are enumerated using a CCD-imager and both primary and laboratory adapted isolates show a linear relationship between virus input and the number of infected cells visualized by the imager. […] Peptides tested for antiviral activity were diluted into various concentrations, and tested in duplicate or triplicate against an HIV inoculum adjusted to yield approximately 1500-2000 infected cells/well of a 48 well microtiter plate. The peptide (in the respective dilution) was added to the CMAGI or MAGI cells, followed by the virus inocula; and 24 hours later, an inhibitor of infection and cell-cell fusion (e.g., T20) was added to prevent secondary rounds of HIV infection and cell-cell virus spread. The cells were cultured for 2 more days, and then fixed and stained with the X-gal substrate to detect HIV-infected cells. The number of infected cells for each control and peptide dilution was determined with the CCD-imager, and then the IC50 and IC90 were calculated (expressed in μg/ml).
In this first example of antiviral potency, two clinical isolates of HIV were obtained from the same HIV-infected individual. A first isolate, hereby designated “HIV-1 T20S” for ease of description, was sensitive to the antiviral effect of T20 (SEQ ID NO:4) both in vitro and in vivo. […] The results, with the IC50 expressed in ng/ml, are illustrated in Table 2.
(§3) Using the methods taught in Example 1 herein, additional conjugates were produced by varying the polymer, the terminus of the synthetic peptide which is operably bound to polymer, and the reactive functionality used for operably binding synthetic peptide to polymer. Two molecules of synthetic peptide (e.g. SEQ ID NO:4) were operably bound to polymer. Such conjugates were then tested for antiviral activity against HIV isolates IIIB, and HIV-1 T20S & HIV-1 T20R (see Table 2 for HIV resistant strains), with the antiviral activity (IC50) expressed in μg/ml. The results for the various conjugates (Table 5, A-Q), terminus of synthetic peptide used for operably binding polymer (Table 5, C-terminus denoted as “C”, N-terminus denoted as “N”) or if an internal lysine was used (Table 5, “Lys 18”, signifying lysine as amino acid residue 18 in the amino acid sequence of the synthetic peptide), antiviral activity (IC50) against HIV-1 strain IIIB (Table 5, “IIIB”), antiviral activity (IC50) against HIV-1 T20S (Table 5, “T20S”) and antiviral activity (IC50) against HIV-1 T20R (Table 5, “T20R”), are illustrated in Table 5.

HIV-1 strain IIIB = assay: In vitro infectivity assay, HIV-1 strain IIIB (Table 5); format: cell-based
Source text: as §1, §2, §3

HIV-1 T20R = format: cell-based
Source text: (§4) The infectivity assays score for reduction of infectious virus titer employing the indicator cell lines MAGI or the CCR5 expressing derivative cMAGI. Both cell lines exploit the ability of HIV-1 that to transactivate the expression of a β-galactosidase reporter gene driven by the HIV-LTR. The β-gal reporter has been modified to localize in the nucleus and can be detected with the X-gal substrate as intense nuclear staining within a few days of infection. The number of stained nuclei can thus be interpreted as equal to the number of infectious virions in the challenge inoculum if there is only one round of infection prior to staining. […] The peptide (in the respective dilution) was added to the CMAGI or MAGI cells, followed by the virus inocula; and 24 hours later, an inhibitor of infection and cell-cell fusion (e.g., T20) was added to prevent secondary rounds of HIV infection and cell-cell virus spread. The cells were cultured for 2 more days, and then fixed and stained with the X-gal substrate to detect HIV-infected cells. The number of infected cells for each control and peptide dilution was determined with the CCD-imager, and then the IC50 and IC90 were calculated (expressed in μg/ml).
In this first example of antiviral potency, two clinical isolates of HIV were obtained from the same HIV-infected individual.
Using the methods taught in Example 1 herein, additional conjugates were produced by varying the polymer, the terminus of the synthetic peptide which is operably bound to polymer, and the reactive functionality used for operably binding synthetic peptide to polymer. Two molecules of synthetic peptide (e.g. SEQ ID NO:4) were operably bound to polymer.

HIV = details: cited from earlier work
SIM/CEM4 = format: cell-based, HIV; details: virus SIM/CEM4
Source text: as §1, §2
(§5) With reference to Table 4, IC50 and IC90 are expressed in μg/ml.

3′GIV/CEM4 = format: cell-based, HIV; details: virus 3′GIV/CEM4
Source text: as §1, §2, §5

IIIB/CEM4 = format: cell-based, HIV; details: virus IIIB/CEM4
Source text: as §1, §2, §5

HIV-1 T20R-B = format: cell-based; details: virus HIV-1 T20R-B
Source text: as §4

[1] = Bioavailability (circulating half-life) in cannulated mice, plasma fluorescence HPLC; format: in vivo; details: mouse, 10 mg/kg
Method: It is important to note that standard animal model for determining bioavailability has been correlated with the bioavailability of synthetic peptide in vivo in humans (as described in more detail in U.S. Pat. No. 6,258,782). […] A sample of blood was removed at predetermined time intervals (0, 15, 30 min and 1, 2, 4, 6, and 8 hours) and added to collection tubes containing anticoagulant (EDTA). Plasma was harvested from each of the collection tubes, and then subjected to analysis by fluorescence high pressure liquid chromatography (HPLC). In addition to sample dilutions, serial dilutions of dosing solution were performed in buffer as well as in plasma, and used to generate a standard curve relating peak area to known concentration of peptide. This curve was then used to calculate concentration of peptide in plasma taking into account all dilutions performed and quantity injected onto column.

HIV-1 T20S-C = format: cell-based; details: virus HIV-1 T20S-C
Source text: as §1, §2
(§6) IC50 and IC90 are expressed in μg/ml.

HIV-1 T20S-D = format: cell-based; details: virus HIV-1 T20S-D
Source text: as §1, §2, §6

HIV-1 T20S-A = format: cell-based; details: virus HIV-1 T20S-A
Source text: as §1, §2, §6

HIV-1 T20S-B = format: cell-based; details: virus HIV-1 T20S-B
Source text: as §1, §2, §6

HIV-1 T20R-C = format: cell-based; details: virus HIV-1 T20R-C
Source text: as §1, §2, §6

HIV-1 T20R-D = format: cell-based; details: virus HIV-1 T20R-D
Source text: as §1, §2, §6

HIV-1 T20R-A = format: cell-based; details: virus HIV-1 T20R-A
Source text: as §1, §2, §6

## LTWQEWDREINNYTSLIYSLIEESQNQQEENEQELL [synthetic peptide alone]
HIV-1 T20S; HIV-1 T20S, Table 5
  T20S (antiviral activity, IC50): .010 µg/mL
HIV-1 strain IIIB
  IIIB (antiviral activity, IC50): .007 µg/mL
HIV-1 T20R; HIV-1 T20R, Table 5
  T20R (antiviral activity, IC50): 1.2 µg/mL

## NNLLRAIEAQQHLLQLTVWGIKQLQARILAVERYLKDQ [DP107]
HIV; Lawless et al., 1996
  50% effective concentration values (EC50), blocked infection of T cells: 1 µg/mL

## enfuvirtide
SIM/CEM4
  IC50: 0.584 µg/mL
  IC90: 3.398 µg/mL
3′GIV/CEM4
  IC50: 0.008 µg/mL
  IC90: 0.050 µg/mL
IIIB/CEM4
  IC50: 0.007 µg/mL
  IC90: 0.052 µg/mL
HIV-1 T20S; T20-sensitive clinical isolate, Table 2
  HIV-1 T20S: IC50: 0.01 µg/mL
HIV-1 T20R-B
  IC50: 1.898 µg/mL
  IC90: 7.179 µg/mL
HIV-1 T20R; T20-resistant clinical isolate, Table 2
  HIV-1 T20R: IC50: 1,211 ng/ml
[1]; cannulated mice, intravenous, read-out: t½ (converted)
  half-life: 1.6 h
[1]; iv
  AUC: 158 µg·h/mL
HIV; typical range in words
  50% effective concentration values (EC50), blocked infection of T cells: in the ng/ml range
HIV-1 T20S-C
  IC50: 0.006 µg/mL
  IC90: 0.073 µg/mL
HIV-1 T20S-D
  IC50: 0.018 µg/mL
  IC90: 0.208 µg/mL
HIV-1 T20S-A
  IC50: 0.006 µg/mL
  IC90: 0.078 µg/mL
HIV-1 T20S-B
  IC50: 0.029 µg/mL
  IC90: 0.117 µg/mL
HIV-1 T20R-C
  IC50: 1.544 µg/mL
  IC90: 6.285 µg/mL
HIV-1 T20R-D
  IC50: 2.039 µg/mL
  IC90: >5 µg/mL
HIV-1 T20R-A
  IC50: >5 µg/mL
  IC90: >5 µg/mL
